Results reported in patent US9884843B2 (Peloton Therapeutics, Inc., priority 2013, dated 2018).

Each molecule was assayed against HIF-2α HIS TAG-PASB Domain (Homo sapiens, UniProt Q99814) (assay: biochemical). Settings: not given.
Sequence of HIF-2α HIS TAG-PASB Domain (Q99814 whole entry, looked up, the tested form may be a part): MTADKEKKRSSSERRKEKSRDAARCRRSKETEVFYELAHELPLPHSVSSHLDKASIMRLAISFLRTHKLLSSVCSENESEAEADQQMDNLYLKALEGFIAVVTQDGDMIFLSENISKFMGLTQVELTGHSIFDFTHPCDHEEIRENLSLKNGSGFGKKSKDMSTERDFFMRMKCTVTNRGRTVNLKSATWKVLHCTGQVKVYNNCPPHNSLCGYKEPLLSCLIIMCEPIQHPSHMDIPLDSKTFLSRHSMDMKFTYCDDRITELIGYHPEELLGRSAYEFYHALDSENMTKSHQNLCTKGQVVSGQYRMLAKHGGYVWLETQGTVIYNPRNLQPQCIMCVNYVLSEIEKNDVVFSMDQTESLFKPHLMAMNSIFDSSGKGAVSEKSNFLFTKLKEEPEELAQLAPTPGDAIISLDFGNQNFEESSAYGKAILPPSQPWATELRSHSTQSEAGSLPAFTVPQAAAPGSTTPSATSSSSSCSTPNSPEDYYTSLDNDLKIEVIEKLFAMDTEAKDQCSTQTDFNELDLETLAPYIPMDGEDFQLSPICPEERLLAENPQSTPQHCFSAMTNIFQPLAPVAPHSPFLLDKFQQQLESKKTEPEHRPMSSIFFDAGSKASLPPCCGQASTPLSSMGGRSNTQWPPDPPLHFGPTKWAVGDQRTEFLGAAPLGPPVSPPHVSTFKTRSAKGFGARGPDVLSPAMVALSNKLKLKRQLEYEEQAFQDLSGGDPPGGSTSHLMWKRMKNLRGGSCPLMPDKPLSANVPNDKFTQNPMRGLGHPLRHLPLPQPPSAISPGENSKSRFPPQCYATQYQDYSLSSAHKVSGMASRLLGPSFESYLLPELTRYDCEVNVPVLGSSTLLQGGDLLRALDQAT
Type: binding
Description: The term “scintillation proximity assay” (SPA) refers to a homogenous assay in which light is emitted when a radiolabeled ligand is brought into close proximity to a radiosensitive bead. The assay typically contains a target protein that contains a tag (e.g., His Tag, Glutathione S-transferase Tag). The tag on the protein is used to bind the target protein to the scintillation bead. Radiolabeled ligand (e.g., labeled with tritium) that binds to the protein is now in close proximity to the bead, and when the raidolabel (e.g., tritium) decays, the high energy particle hits the bead resulting in the emission of light that is detected by a detector, such as photomultiplier tube or CCD camera. When unlabeled ligands or compounds that bind to the protein are used in the assay, they displace the radiolabeled ligand, resulting in loss of signal.
The total assay volume was about 100 μL in the following configuration: 2-μL compound in DMSO, 88 μL buffer with protein and probe and 10 μL of SPA beads. […] To each compound, 88 μL of the buffer solution was then added. […] The percent inhibition was determined and IC50 values were calculated using the Dotmatics system based on the following equation: % inhibition=[(high control−sample)/(high control−low control)]×100.
`N#Cc1c(Oc2cc(F)cc(F)c2)ccc2c1[C@@H](O)CS2(=O)=O` [Compound 68, (R)-5-(3,5-difluorophenoxy)-3-hydroxy-2,3-dihydrobenzo[b]thiophene-4-carbonitrile 1,1-dioxide] showed an IC50 of 125 nM. `COc1cc(F)cc(Oc2ccc3c(c2C#N)[C@@H](O)C(F)(F)S3(=O)=O)c1` [Compound 81, (R)-2,2-difluoro-5-(3-fluoro-5-methoxyphenoxy)-3-hydroxy-2,3-dihydrobenzo[b]thiophene-4-carbonitrile 1,1-dioxide] was tested, and the IC50 was 67 nM.

Same assay, conditions: displacement of Compound 120 probe; mean; read-out: Mean SPA IC50
`O=S1(=O)c2ccc(Oc3cc(F)cc(Cl)c3)c(Br)c2[C@H](O)C1(F)F` [Compound 59, (3S)-4-Bromo-5-(3-chloro-5-fluoro-phenoxy)-2,2-difluoro-1,1-dioxo-3H-benzothiophen-3-ol] showed an IC50 of 60 nM. Molecule `N#Cc1cc(F)cc(Oc2ccc3c(c2C#N)C(N)C(F)(F)S3(=O)=O)c1` (stereo not shown) [Compound 118, 3-Amino-5-(3-cyano-5-fluorophenoxy)-2,2-difluoro-2,3-dihydrobenzo[b]thiophene-4-carbonitrile 1,1-dioxide] has an IC50 of 1230 nM. In the case of `N=S1(=O)c2ccc(Oc3cc(F)cc(F)c3)c(Br)c2C(O)C1(F)F` (stereo not shown) [Compound 31, 4-Bromo-5-(3,5-difluorophenoxy)-2,2-difluoro-3-hydroxy-1-imino-2,3-dihydro-1H-1λ^4-benzo[b]thiophene 1-oxide], the IC50 is reported as 4140 nM. Work on `NC1c2c(ccc(Oc3cc(F)cc(F)c3)c2Br)S(=O)(=O)C1(F)F` (stereo not shown) [Compound 30, 3-Amino-4-bromo-5-(3,5-difluorophenoxy)-2,2-difluoro-2,3-dihydrobenzo[b]thiophene 1,1-dioxide] yielded an IC50 of less than 5 nM. Work on `O=S1(=O)c2ccc(OC3CCOCC3)c(C(F)F)c2C(O)C1(F)F` (stereo not shown) [Compound 54, 4-(Difluoromethyl)-2,2-difluoro-3-hydroxy-5-((tetrahydro-2H-pyran-4-yl)oxy)-2,3-dihydrobenzo[b]thiophene 1,1-dioxide] yielded an IC50 of 1920 nM. In the case of `CC1(O)c2c(ccc(OCc3ccccc3)c2C#N)S(=O)(=O)C1(F)F` (stereo not shown) [Compound 113, 5-(Benzyloxy)-2,2-difluoro-3-hydroxy-3-methyl-2,3-dihydrobenzo[b]thiophene-4-carbonitrile 1,1-dioxide], the IC50 is reported as 16700 nM. `NC1c2c(ccc(Oc3cc(F)cc(F)c3)c2C(F)F)S(=O)(=O)C1F` (stereo not shown) [Compound 20, 3-amino-4-(difluoromethyl)-5-(3,5-difluorophenoxy)-2-fluoro-2,3-dihydrobenzo[b]thiophene 1,1-dioxide] was tested, and the IC50 was 1540 nM.

Same assay, conditions: unnumbered compounds listed by structure and name; read-out: IC50 value in SPA
Molecule `N#Cc1cccc(Oc2ccc3c(c2C(F)F)C(=O)C(F)(F)S3(=O)=O)c1` [3-[4-(difluoromethyl)-2,2-difluoro-1,1,3-trioxo-benzothiophen-5-yl]oxybenzonitrile] has an IC50 of 25000 to 100000 nM. Work on `O=S1(=O)c2ccc(Oc3cc(F)cc(Cl)c3)c(Br)c2C(O)C12CC2` (stereo not shown) [4-bromo-5-(3-chloro-5-fluoro-phenoxy)-1,1-dioxo-spiro[3H-benzothiophene-2,1′-cyclopropane]-3-ol] yielded an IC50 of 25000 to 100000 nM. Molecule `N=S1(=O)CC(=O)c2c1ccc(Oc1cc(F)cc(F)c1)c2Br` (stereo not shown) [4-bromo-5-(3,5-difluorophenoxy)-1-imino-1-oxo-benzothiophen-3-one] has an IC50 greater than 100000 nM. `N#CN=S1(=O)C[C@H](O)c2c1ccc(Oc1cc(F)cc(F)c1)c2Cl` (stereo partly drawn) [[(3R)-4-chloro-5-(3,5-difluorophenoxy)-3-hydroxy-1-oxo-2,3-dihydrobenzothiophen-1-ylidene]cyanamide] showed an IC50 of 25000 to 100000 nM.

Each molecule was assayed on 786-O-Hif-Luc cells (assay: Luciferase Assay (HIF responsive element reporter)). Settings: 786-O-Hif-Luc cells, about 24 hours; read-out: Mean Luciferease EC50.
Type: cell-based
Method: A pool of infected cells were then selected against 2 μg/mL of puromycin (P8833, Sigma) for 10 days followed by limited dilution to select single clones.
Each concentration was tested in triplicate. After about 24 hours, luciferase activity was determined using ONE-Glo Luciferase Assay Reagent (E6110, Promega) following the manufacturer's recommended procedure. EC50 were calculated by using Dotmatics software.
`[2H]C1(O)c2c(ccc(Oc3cc(F)cc(C#N)c3)c2C(F)F)S(=O)(=O)C1(F)F` (stereo not shown) [Compound 40, 3-((4-(Difluoromethyl)-2,2-difluoro-3-hydroxy-1,1-dioxido-2,3-dihydrobenzo[b]thiophen-5-yl-3-d)oxy)-5-fluorobenzonitrile] gave an EC50 of 12 nM. For `O=S1(=O)c2ccc(Oc3cc(F)cc(Cl)c3)c(Br)c2[C@H](O)C1(F)F` [Compound 59, (3S)-4-Bromo-5-(3-chloro-5-fluoro-phenoxy)-2,2-difluoro-1,1-dioxo-3H-benzothiophen-3-ol], the EC50 was 170 nM. `N#Cc1cc(F)cc(Oc2ccc3c(c2C(F)F)[C@@H](N)C(F)(F)S3(=O)=O)c1` [Compound 41, (R)-3-((3-Amino-4-(difluoromethyl)-2,2-difluoro-1,1-dioxido-2,3-dihydrobenzo[b]thiophen-5-yl)oxy)-5-fluorobenzonitrile] showed an EC50 of 140 nM. Molecule `N#Cc1cc(F)cc(Oc2ccc3c(c2C(F)F)C(O)C(F)(F)S3(=O)=O)c1` (stereo not shown) [Compound 29, 3-((4-(Difluoromethyl)-2,2-difluoro-3-hydroxy-1,1-dioxido-2,3-dihydrobenzo[b]thiophen-5-yl)oxy)-5-fluorobenzonitrile] has an EC50 of 4 nM. `N=S1(=O)c2ccc(Oc3cc(F)cc(F)c3)c(Br)c2C(O)C1(F)F` (stereo not shown) [Compound 32, 4-bromo-5-(3,5-difluorophenoxy)-2,2-difluoro-3-hydroxy-1-imino-2,3-dihydro-1H-1λ^4-benzo[b]thiophene 1-oxide] was tested, and the EC50 was 290 nM. `O=S1(=O)c2ccc(Oc3cc(F)cc(Cl)c3)c(C(F)F)c2C(O)C1(F)F` (stereo not shown) [Compound 18, 5-(3-Chloro-5-fluorophenoxy)-4-(difluoromethyl)-2,2-difluoro-3-hydroxy-2,3-dihydrobenzo[b]thiophene 1,1-dioxide] gave an EC50 of 17 nM. For `NC1c2c(ccc(Oc3cc(F)cc(F)c3)c2Br)S(=O)(=O)C1(F)F` (stereo not shown) [Compound 30, 3-Amino-4-bromo-5-(3,5-difluorophenoxy)-2,2-difluoro-2,3-dihydrobenzo[b]thiophene 1,1-dioxide], the EC50 was 1700 nM.

Same assay, conditions: 24 h, 786-O-Hif-Luc cells, about 24 hours; read-out: Mean Luciferease EC50
In the case of `N#Cc1cc(F)cc(Oc2ccc3c(c2F)C(O)C(F)(F)S3(=O)=O)c1` (stereo not shown) [Compound 88, 3-Fluoro-5-((2,2,4-trifluoro-3-hydroxy-1,1-dioxido-2,3-dihydrobenzo[b]thiophen-5-yl)oxy)benzonitrile], the EC50 is reported as 880 nM. With `N[C@@H]1c2c(ccc(Oc3cc(F)cc(Br)c3)c2Br)S(=O)(=O)C1(F)F` [Compound 116, (R)-3-Amino-4-bromo-5-(3-bromo-5-fluorophenoxy)-2,2-difluoro-2,3-dihydrobenzo[b]thiophene 1,1-dioxide] the EC50 was 800 nM. With `COc1cc(F)cc(Oc2ccc3c(c2Br)[C@@H](O)C(F)(F)S3(=O)=O)c1` [Compound 80, (R)-4-Bromo-2,2-difluoro-5-(3-fluoro-5-methoxyphenoxy)-3-hydroxy-2,3-dihydrobenzo[b]thiophene 1,1-dioxide] the EC50 was 410 nM. In the case of `O=S1(=O)CC(O)c2c1ccc(Oc1cc(F)cc(F)c1)c2C(F)F` (stereo not shown) [Compound 24, 4-(Difluoromethyl)-5-(3,5-difluorophenoxy)-3-hydroxy-2,3-dihydrobenzo[b]thiophene 1,1-dioxide], the EC50 is reported as 720 nM. For `N#Cc1c(Oc2cc(F)cc(F)c2)ccc2c1[C@@H](O)CS2(=O)=O` [Compound 68, (R)-5-(3,5-difluorophenoxy)-3-hydroxy-2,3-dihydrobenzo[b]thiophene-4-carbonitrile 1,1-dioxide], the EC50 was 370 nM. `N#Cc1cc(Oc2ccc3c(c2C(F)F)[C@@H](O)C(F)(F)S3(=O)=O)ccc1F` [Compound 91, (R)-5-((4-(Difluoromethyl)-2,2-difluoro-3-hydroxy-1,1-dioxido-2,3-dihydrobenzo[b]thiophen-5-yl)oxy)-2-fluorobenzonitrile] was tested, and the EC50 was 310 nM. `O=S1(=O)CC(O)c2c1ccc(Oc1cc(F)cc(Cl)c1)c2C(F)F` (stereo not shown) [Compound 15, 5-(3-Chloro-5-fluorophenoxy)-4-(difluoromethyl)-3-hydroxy-2,3-dihydrobenzo[b]thiophene 1,1-dioxide] gave an EC50 of 730 nM. Molecule `N#Cc1cccc(Oc2ccc3c(c2Br)[C@@H](O)C(F)(F)S3(=O)=O)c1` [Compound 84, (R)-3-((4-bromo-2,2-difluoro-3-hydroxy-1,1-dioxido-2,3-dihydrobenzo[b]thiophen-5-yl)oxy)benzonitrile] has an EC50 of 33 nM. `O=S1(=O)c2ccc(Oc3cccc4cn[nH]c34)c(C(F)F)c2C(O)C1(F)F` (stereo not shown) [Compound 95, 5-((1H-Indazol-7-yl)oxy)-4-(difluoromethyl)-2,2-difluoro-3-hydroxy-2,3-dihydrobenzo[b]thiophene 1,1-dioxide] gave an EC50 of 6890 nM. `CC1(O)c2c(ccc(Oc3cc(F)cc(C#N)c3)c2C#N)S(=O)(=O)C1(F)F` (stereo not shown) [Compound 105, 5-(3-Cyano-5-fluorophenoxy)-2,2-difluoro-3-hydroxy-3-methyl-2,3-dihydrobenzo[b]thiophene-4-carbonitrile 1,1-dioxide] showed an EC50 of 48 nM. For `CC(C)Oc1ccc2c(c1C#N)C(C)(O)C(F)(F)S2(=O)=O` (stereo not shown) [Compound 110, 2,2-Difluoro-3-hydroxy-5-isopropoxy-3-methyl-2,3-dihydrobenzo[b]thiophene-4-carbonitrile 1,1-dioxide], the EC50 was 5400 nM. Molecule `N#Cc1cc(F)cc(Oc2ccc3c(c2C#N)C(N)C(F)(F)S3(=O)=O)c1` (stereo not shown) [Compound 118, 3-Amino-5-(3-cyano-5-fluorophenoxy)-2,2-difluoro-2,3-dihydrobenzo[b]thiophene-4-carbonitrile 1,1-dioxide] has an EC50 of 4600 nM. `N=S1(=O)c2ccc(Oc3cc(F)cc(F)c3)c(Br)c2C(O)C1(F)F` (stereo not shown) [Compound 31, 4-Bromo-5-(3,5-difluorophenoxy)-2,2-difluoro-3-hydroxy-1-imino-2,3-dihydro-1H-1λ^4-benzo[b]thiophene 1-oxide] was tested, and the EC50 was 540 nM. For `N#CC1(COc2ccc3c(c2C(F)F)C(O)C(F)(F)S3(=O)=O)CC1` (stereo not shown) [Compound 109, 1-(((4-(difluoromethyl)-2,2-difluoro-3-hydroxy-1,1-dioxido-2,3-dihydrobenzo[b]thiophen-5-yl)oxy)methyl)cyclopropane-1-carbonitrile], the EC50 was 6700 nM. Molecule `N#Cc1c(Oc2cc(F)cc(F)c2)ccc2c1C(O)C(F)S2(=O)=O` (stereo not shown) [Compound 44, 5-(3,5-Difluorophenoxy)-2-fluoro-3-hydroxy-2,3-dihydrobenzo[b]thiophene-4-carbonitrile 1,1-dioxide] has an EC50 of 790 nM.

Same assay, conditions: 24 h, read-out: Mean Luciferease EC50
Work on `N#Cc1cc(F)cc(Oc2ccc3c(c2C(F)F)[C@H](O)C(F)(F)S3(=O)=O)c1` [Compound 34, (S)-3-((4-(Difluoromethyl)-2,2-difluoro-3-hydroxy-1,1-dioxido-2,3-dihydrobenzo[b]thiophen-5-yl)oxy)-5-fluorobenzonitrile] yielded an EC50 of 20 nM. Work on `O=S1(=O)CC(O)c2c1ccc(Oc1cc(F)cc(Cl)c1)c2Br` (stereo not shown) [Compound 6, 4-Bromo-5-(3-chloro-5-fluorophenoxy)-3-hydroxy-2,3-dihydrobenzo[b]thiophene 1,1-dioxide] yielded an EC50 of 4850 nM.
